Source: PubChem BioAssay AID489040 (Sanford-Burnham Center for Chemical Genomics, 2010)
Active and inactive are the calls of the source.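 How the source made its calls: active means mean half-maximal activating concentration from the dose-response fit at or below a set limit; inactive means the rest.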

Target: CHO-XBP1 luciferase reporter, IRE1-XBP1 UPR activation
Test: activators of IRE1-XBP1 UPR arm, dose response, counter-screen for apoptotic UPR arm activators, CHO-XBP1 cells, luminescence (AID 489040);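 further: reporter read after six hours of compound exposure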

Structure (SMILES) | EC50
O=C(NC(=S)Nc1ccc(NC(=O)c2cccs2)cc1)c1cc2ccccc2o1 | > 80 µM (inactive)
CC(C)c1nnc(NC(=O)CCS(=O)(=O)c2nc(-c3cccs3)cc(C(F)(F)F)n2)s1 | > 80 µM (inactive)
Cc1ccc(-n2nc3cc(C)c(NC(=S)NC(=O)/C=C/c4ccco4)cc3n2)cc1 | inactive
FC(F)(F)c1nnc(-c2ccccc2)nc1Sc1ccccc1 | > 80 µM (inactive)
O=C(N/N=C\c1cc2c(cc1Cl)OCO2)c1ccc(Br)s1 | > 80 µM (inactive)
Cc1ccc(C(C[N+](=O)[O-])n2nc(C)cc2C)cc1 (centres undefined) | > 80 µM (inactive)
CCc1ccc(-n2c(SCC(=O)c3ccc4c(c3)NC(=O)CO4)nc3ccccc3c2=O)cc1 | 10.5 µM
COc1ccc2[nH]cc(C(=O)CCl)c2c1 | > 80 µM (inactive)
COc1ccc(CC2=CC(=O)c3ccccc3C2=O)cc1 | > 80 µM (inactive)
C/C(=N\NC(=O)C(C)Oc1ccc([N+](=O)[O-])cc1)c1ccccn1 (centres undefined) | > 80 µM (inactive)
O=Cc1ccc(O)c2ncccc12 | > 80 µM (inactive)
COc1ccc(N=C2S/C(=C\c3ccc(N4CCOCC4)o3)C(=O)N2CCc2c[nH]c3ccccc23)cc1 | > 80 µM (inactive)
O=C1Nc2ccccc2/C1=C/C(=O)c1cccs1 | > 80 µM (inactive)
COc1cc(/C=C(/C#N)c2nc3ccccc3[nH]2)ccc1OCC(=O)Nc1ccccc1C | > 80 µM (inactive)
CCOC(=O)c1cnc(Nc2nc3ccccc3o2)nc1CSC(=S)N(CC)CC | 4.59 µM
COCCN1CSC(=S)N(Cc2ccco2)C1 | > 80 µM (inactive)
O=C(/C=C/c1cccnc1)c1ccc(NC(=O)c2cccc(Br)c2)cc1 | > 80 µM (inactive)
COc1cccc2sc(N3CCN(c4nc5ccccc5s4)CC3)nc12 | 18.7 µM
COc1ccc(C(=O)C(CN2CCCC2)c2ccccc2)cc1 (centres undefined) | > 80 µM (inactive)
O=C(N/N=C/c1ccccn1)c1sc2ccccc2c1Cl | > 80 µM (inactive)
COc1ccc(-c2cc(-c3ccccc3)c(C#N)c(S(C)(=O)=O)n2)cc1 | 5.94 µM
COc1ccc(-c2cc3ccccc3oc2=O)cc1NC(=S)NC(=O)c1ccc2c(c1)OCCO2 | 4.27 µM
Cc1c(NC(=O)CSc2cccc3cccnc23)c(=O)n(-c2ccccc2)n1C | > 80 µM (inactive)
O=[N+]([O-])c1ccc(C=Nc2ccc(Cl)c([N+](=O)[O-])c2)s1 | > 80 µM (inactive)
Cc1c(C#N)c(NC(=O)CCl)n(Cc2ccccc2)c1C | > 80 µM (inactive)

Structure (SMILES) | EC50
CN1/C(=C\C(=O)COC(=O)c2ccc(O)c(O)c2)C(C)(C)c2ccccc21 | 9.91 µM
Cc1ccc2nc(-c3ccc(O)c(O)c3)cn2c1 | > 80 µM (inactive)
CC(C)(C)C1=CC(=O)C(=O)C(C(C)(C)C)=C1 | > 80 µM (inactive)
COCCN=c1scc(-c2cccs2)n1/N=C/c1ccc(O)c(O)c1O | > 80 µM (inactive)
CC(NC(=O)CN(c1cccc(C(F)(F)F)c1)S(=O)(=O)c1ccc(Cl)c([N+](=O)[O-])c1)c1ccccc1 (centres undefined) | > 80 µM (inactive)
CCOC(=O)c1cnc(-n2nc(C)cc2C)nc1NC1CCCCC1 | > 80 µM (inactive)
Cc1ccn2cc(-c3ccc(O)c(O)c3)nc2c1 | > 80 µM (inactive)
Oc1ccc(CN2CCc3ccccc3C2)c2cccnc12 | > 80 µM (inactive)
Cc1nc([N+](=O)[O-])c(Br)n1CC(=O)c1ccc(Cl)cc1 | > 80 µM (inactive)
COc1cccc(/C=N/Nc2nc(Nc3ccccc3)nc(-n3nc(C)cc3C)n2)c1O | 5.09 µM
OCCNc1nc(Nc2ccc(Cl)c(Cl)c2)nc2ccccc12 | > 80 µM (inactive)
CCc1nn(-c2cc(Oc3cccc4ccccc34)nc(-c3ccccc3)n2)c(N)c1C#N | inactive
C/C(CC(C)(C)C1CCCCC1)=N\NC(N)=S | inactive
C=CCn1nc([N+](=O)[O-])nc1Sc1cccc2cccnc12 | > 80 µM (inactive)
Cc1ccc(S(=O)(=O)N(C(=O)c2ccncc2)c2ccc(OC(=O)c3ccncc3)c3ccccc23)c(C)c1 | > 80 µM (inactive)
O=C1Nc2ccc(Br)cc2/C1=N/N=C/C1=C(N2CCOCC2)C(=C\c2ccccc2)/CC1 | > 80 µM (inactive)
CCOC(=O)C(=Cc1ccc(-n2cncn2)cc1)C(=O)OCC | > 80 µM (inactive)
Cc1ccc(Nc2nc(-c3ccc(O)c(O)c3)cs2)nc1 | > 80 µM (inactive)
COc1ccc(NC(=O)C(=O)N/N=C\c2ccc(CNC(=O)C(=O)Nc3ccc(C)c(C)c3)o2)c(OC)c1 | > 80 µM (inactive)
CCOC(=O)c1sc(N(Cc2ccccc2)C(=O)CCl)nc1C | 8.65 µM
Cc1cc(C(=O)Cn2ncc(Cl)c(Cl)c2=O)c(C)n1CC(F)(F)F | > 80 µM (inactive)
Cc1ccc(NC(=O)Cn2ncc(Cl)c(Cl)c2=O)cc1S(=O)(=O)N1CCCCC1 | > 80 µM (inactive)
Cc1ccc(C)c(C(=O)Cn2ncc(Cl)c(Cl)c2=O)c1 | > 80 µM (inactive)
O=C1NC(=O)C(=Cc2ccc(-c3ccc(Cl)cc3)o2)C(=O)N1 | > 80 µM (inactive)
COc1ccccc1/C=N\Nc1cc(C)nc(-n2nc(C)cc2C)n1 | > 80 µM (inactive)

Structure (SMILES) | EC50
Cc1cc(C)nc(S/C=C/C(=O)c2ccccc2)n1 | > 80 µM (inactive)
COc1ccccc1N1CCN(Cc2ccc(O)c3ncccc23)CC1 | > 80 µM (inactive)
O=C(c1cccs1)N(C(=O)c1cccs1)c1ccc(Br)cn1 | 17.9 µM
CCCN(CCC)C(=O)c1cc([N+](=O)[O-])cc2c1-c1ccc([N+](=O)[O-])cc1C2=C(C#N)C#N | > 80 µM (inactive)
CC(C)N1C/C(=C/c2ccsc2)C(=O)/C(=C/c2ccsc2)C1 | > 80 µM (inactive)
N#CC1=C(N)OC2=C(CC/C2=C\c2ccccc2)C1c1ccccc1 (centres undefined) | > 80 µM (inactive)
Cc1nc2ccccc2n1-c1nc(-c2ccco2)cc(C(F)(F)F)n1 | > 80 µM (inactive)
CC(C)C(=O)N1CCN(c2ccc(NC(=O)c3ccc([N+](=O)[O-])o3)cc2)CC1 | > 80 µM (inactive)
CCOC(=O)c1c2ccc(OCC(=O)N/N=C/c3ccc(C)cc3)cc2n2ccccc12 | > 80 µM (inactive)
CCOc1cc(C=C(C(=O)OC)C(=O)OC)ccc1OCc1ccc([N+](=O)[O-])cc1 | > 80 µM (inactive)
CC1(C)CC(=O)C2=C(C1)Oc1nc3ccccc3cc1C2C(C#N)C#N (centres undefined) | > 80 µM (inactive)
Cn1nnnc1Sc1ncnc2scc(-c3cc4ccccc4o3)c12 | > 80 µM (inactive)
Cc1cc(C(=O)CCl)c(C)n1CCc1ccc(F)cc1 | > 80 µM (inactive)
CN(c1ccccc1)S(=O)(=O)c1cccc(C(=O)NCCc2ccc(O)c(O)c2)c1 | 9.81 µM
Nc1nnnn1/N=C/C(Br)=C/c1ccccc1 | > 80 µM (inactive)
Cc1coc2c1C(=O)C(=O)c1c-2ccc2c(C)cccc12 | > 80 µM (inactive)
COc1nc(N)nc(NC(=O)c2cccs2)c1N=O | > 80 µM (inactive)
CN(C(=O)CSc1cc(C(=O)c2nccn2C)c2ccccc2n1)c1ccccc1 | > 80 µM (inactive)
Cc1cc(C(=O)CCl)c(C)n1-c1cccc(S(=O)(=O)N2CCOCC2)c1 | > 80 µM (inactive)
Cn1nnnc1Sc1ncnc2scc(-c3ccc([N+](=O)[O-])cc3)c12 | > 80 µM (inactive)
Cc1ccc(N2CCN(c3ccc(NCc4nc5ccccc5n4C)cc3)CC2)cc1 | inactive
Cc1ccc(-c2nc(SCC(=O)Nc3cc(C)on3)c3c(=O)n(C)c(=O)n(C)c3n2)cc1 | inactive
COc1ccc(/C=N/Nc2cc(C)nc(-n3nc(C)cc3C)n2)cc1 | > 80 µM (inactive)
CCc1ccc2nc(N(CCCN(C)C)C(=O)c3ccc(S(=O)(=O)N(C)C4CCCCC4)cc3)sc2c1 | > 80 µM (inactive)
CCc1ccc(NC(=O)C(CC)Sc2nc3cc4c(cc3c(=O)n2Cc2ccco2)OCO4)cc1 (centres undefined) | > 80 µM (inactive)

Structure (SMILES) | EC50
Cc1cccnc1Nc1nc(-c2ccc(O)c(O)c2)cs1 | inactive
COc1ccccc1N1C(=O)C=C(Sc2nc(C)cc(C)n2)C1=O | > 80 µM (inactive)
COc1ccccc1N=Cc1c(O)c2ccccc2oc1=O | 8.05 µM
FC(F)(F)c1nnc2c(Sc3ccccc3)nc3ccc(Cl)cc3n12 | 9.74 µM
CC(C)(C)C(=O)NC(=S)NNC(=O)c1ccc(-c2ccccc2)cc1 | 9.6 µM
COc1ccc(N2CCN(Cc3cc(=O)oc4cc(-c5ccccc5)c(O)cc34)CC2)cc1 | > 80 µM (inactive)
Fc1ccc(NC(=S)Nc2nccs2)cc1 | > 80 µM (inactive)
CCCCCOc1ccc(N2C(=O)CC(N(O)c3ccccc3)C2=O)cc1 (centres undefined) | > 80 µM (inactive)
Clc1ccc(-c2ccc(/C=N/Nc3nncc(-c4ccccc4)n3)o2)cc1 | inactive
CCC(=O)Nc1ccc(C(=O)Cn2ncc(Cl)c(Cl)c2=O)cc1 | > 80 µM (inactive)
O=[N+]([O-])c1cc(-c2ncccn2)c([N+](=O)[O-])s1 | > 80 µM (inactive)
O=S(=O)(CCSc1nc2ccccc2s1)c1nc2ccccc2s1 | > 80 µM (inactive)
CCCCOC(=O)/C=C\C(=O)NC(N)=O | > 80 µM (inactive)
CCc1ccc2nc(N(CCCN(C)C)C(=O)c3ccc(S(=O)(=O)N4CCc5ccccc5C4)cc3)sc2c1 | > 80 µM (inactive)
O=C(CSc1ccc2ccccc2c1)NCCc1ccc(O)c(O)c1 | > 80 µM (inactive)
Oc1ccc(CN2CCC(Cc3ccccc3)CC2)c2cccnc12 | > 80 µM (inactive)
Cc1cc(C(=O)c2ccc(C(C)(C)C)cc2)c(NC(=O)CCl)s1 | > 80 µM (inactive)
COc1ccc(C(=O)NCC(=O)N/N=C/c2ccc([N+](=O)[O-])o2)cc1OC | > 80 µM (inactive)
O=[N+]([O-])c1ccc(Sc2nnnn2-c2ccccc2)nc1 | > 80 µM (inactive)
CCOc1ccc2nc(SC3CC(=O)N(c4ccc(C)cc4)C3=O)sc2c1 (centres undefined) | > 80 µM (inactive)
O=C(CCN1C(=O)/C(=C\c2ccccc2F)SC1=S)N1CCCCC1 | > 80 µM (inactive)
CCOC(=O)c1c(C)oc2c1c(C(c1cccnc1)N1CCOCC1)c(O)c1ccccc12 (centres undefined) | > 80 µM (inactive)
COc1cccc2sc(Nc3nc(C)c(C(C)=O)s3)nc12 | > 80 µM (inactive)
Cc1ccc(-c2nnc(-c3ccc(NC(=O)c4cccs4)cc3)o2)cc1 | 11.9 µM
